By CLint scaled is commonly meant a measure of how fast metabolising enzymes remove a compound, apart from limits set by blood flow. A high value points to rapid turnover.

Data set [1] in a line: Intrinsic clearance in human. The format is ADME, organism-based. To be noted: in vivo.
Data set [2] can be described thus: Intrinsic clearance in rat. Particulars: in vivo. The format is ADME, organism-based.

Regarding `CCOC(=O)c1ccc(-c2nn(Cc3ccccc3)c3ccccc23)cc1`, the values for the CLint scaled in data set [1] and in data set [2] were 75 mL/min/kg and 1090 mL/min/kg, respectively.
In the case of `Cn1c(CO)c(-c2ccccc2)c2cc([N+](=O)[O-])ccc21`, the CLint scaled in data set [1] was 157 mL/min/kg; in data set [2], 359 mL/min/kg.
Turning to `CCOC(=O)c1ccc(-c2cn(Cc3ccccc3)c3ccccc23)cc1`, the CLint scaled in data set [1] was 77 mL/min/kg; in data set [2], 1160 mL/min/kg.

These data come from ChEMBL document CHEMBL3352238, “Substituted indoles as selective protease activated receptor 4 (PAR-4) antagonists: Discovery and SAR of ML354” (Bioorg Med Chem Lett, 2014).
